From patent publication US20210275518A1, “METHODS OF USING REBASTINIB IN THE TREATMENT OF DISORDERS” (Deciphera Pharmaceuticals, LLC, priority 2020, published 2021)

Tests used:
[1] = Pharmacokinetics of rebastinib given with paclitaxel (Part 1); assay type: in vivo, human; conditions: 50 mg BID and 100 mg BID in combination with paclitaxel
Description: This is an open-label Phase 1b/2 multicenter study in patients with advanced or metastatic solid tumors where paclitaxel may be considered appropriate treatment. Rebastinib will be administered in combination with paclitaxel in repeated 28-day cycles to primarily assess the safety, tolerability and preliminary efficacy of the combination. Adverse events (AEs) will be assessed, and laboratory values, vital sign measurements, electrocardiograms (ECGs), ophthalmologic examinations, physical examinations and Eastern Cooperative Oncology Group (ECOG) Performance Status (PS) will be obtained to evaluate the safety and tolerability of rebastinib when administered in combination with paclitaxel. Pharmacokinetic (PK) and pharmacodynamic (PD) samples will be collected at pre-specified time points.

[2] = tested on: triple negative breast cancer; assay: Phase 1b/2 rebastinib + paclitaxel, Part 2 Cohort 1 (RECIST v1.1); assay type: in vivo, human
Description: (§1) Upon determination of the RP2D, Part 2 is initiated to dose up to 165 evaluable patients using the RP2D across five indication-specific cohorts. A Simon's two-stage design is applied to Part 2 to further evaluate the safety, tolerability, and preliminary efficacy of rebastinib in combination with paclitaxel in triple-negative breast (Cohort 1), inflammatory breast (Cohort 2), ovarian (Cohort 3), endometrial adenocarcinoma (Cohort 4), and gynecologic carcinosarcoma (Cohort 5) cancers. Each cohort initially enrolls up to 18 evaluable patients in the first stage. Patients must receive at least 1 dose of the combination and have 1 post-baseline assessment (including assessment of clinical progression) or be discontinued prior to the postbaseline disease assessment due to an AE at least possibly related to rebastinib, to be considered evaluable. Tumor response is assessed according to Response Evaluation Criteria in Solid Tumors (RECIST) Version 1.1. The decision to enroll patients beyond the first stage is based on response assessments obtained after the first post-dose response assessment of the last patient enrolled in the first stage of a cohort. […] If ≤4 responses are seen in a cohort, the cohort will be terminated. If >4 responses are seen prior to the last evaluable patient in the first stage, expanding the cohort may be triggered earlier. Enrollment in each cohort will pause between the first and second stage of the Simon two-stage for evaluation of response. Patients will receive study treatment until they develop progressive disease, experience unacceptable toxicity, or withdraw consent.

[3] = tested on: breast cancer, ovarian cancer, and mesothelioma; assay: Phase 1b/2 study of rebastinib in combination with carboplatin; assay type: in vivo, human
Method: (§2) This is a Phase 1b/2 study where patients with mesothelioma are administered rebastinib in combination with carboplatin. The study follows a Simon 2-stage design at the MTD and R2PD. Safety and tolerability, PK and PD, and preliminary efficacy data was used to determine the RP2D. Upon determination of the RP2D or MTD, the Simon 2-stage design is initiated to dose evaluable patients using the RP2D or MTD across three indication-specific cohorts (breast cancer, ovarian cancer, and mesothelioma).
as §1, with “Each” for “Upon determination of the RP2D, Part 2 is initiated to dose up to 165 evaluable patients using the RP2D across five indication-specific cohorts. A Simon's two-stage design is applied to Part 2 to further evaluate the safety, tolerability, and preliminary efficacy of rebastinib in combination with paclitaxel in triple-negative breast (Cohort 1), inflammatory breast (Cohort 2), ovarian (Cohort 3), endometrial adenocarcinoma (Cohort 4), and gynecologic carcinosarcoma (Cohort 5) cancers. Each”, “progression),” for “progression)”
At a second time point, 22 patients were enrolled in the study (3 cohorts: 3 patients at rebastinib 50 mg BID+carboplatin AUC5, 14 patients at rebastinib 100 mg BID+carboplatin AUC5, and 5 pts at rebastinib 100 mg BID+carboplatin AUC6). The median age was 61 yrs. Most frequent diagnoses were breast cancer (n=5); neuroendocrine carcinoma (n=3); pancreatic adenocarcinoma, NSCLC, and cholangiocarcinoma (n=2 each). The median number of prior anti-cancer therapies was 4 (1, 12). Median duration of treatment was 8.4 weeks (0.9, 22.6).

[4] = Pharmacokinetics of rebastinib given with carboplatin; assay type: in vivo; conditions: time point 2; 50 and 100 mg BID with carboplatin
Method: as §2

[5] = tested on: inflammatory breast cancer; assay: Phase 1b/2 rebastinib + paclitaxel, Part 2 Cohort 2 (RECIST v1.1); assay type: in vivo, human
Description: as §1

[6] = both Cycle 3, Day 1 and Cycle 5, Day 1
[7] = time point 1, rebastinib and carboplatin combination

CNC(=O)c1cc(Oc2ccc(NC(=O)Nc3cc(C(C)(C)C)nn3-c3ccc4ncccc4c3)c(F)c2)ccn1 [rebastinib]
Exposure to rebastinib [1]: dose proportional
Patients with stable disease ([2]; Cycle 3, Day 1): one
Patients with partial response ([2]; Cycle 8, Day 1): one
Patients with partial response [2, 6]: one
Patients with stable disease [2, 6]: two
Tolerability ([3]; time point 1, rebastinib 50 mg and 100 mg BID in combination with carboplatin AUC5): tolerated
Tolerability ([3]; time point 1, rebastinib 100 mg BID in combination with carboplatin AUC6 (3 patients)): tolerated
Muscular weakness [3, 7]: No muscular weakness
Response in the dose escalation cohorts [3, 7]: No response
Partial response (PR) ([3]; time point 2, 22 patients enrolled, rebastinib 50 or 100 mg BID + carboplatin AUC5 or AUC6, preliminary): 1
Muscular weakness in the dose expansion cohort ([3]; time point 2, rebastinib 100 mg BID with carboplatin AUC5, RP2D adjusted to 50 mg BID): increased frequency
CBR at 6 weeks ([3]; time point 2, rebastinib + carboplatin, preliminary): 52%
Rebastinib exposure [4]: dose proportional
Patients with partial response ([5]; Cycle 3, Day 1): two
Patients with stable disease ([5]; Cycle 3, Day 1): one
Patients with partial response ([5]; Cycle 3, Day 1, Cycle 5, Day 1, and Cycle 8, Day 1): one
Patients with stable disease [5, 6]: one
